Laboratory results taken from PMC11243327, “Design, Synthesis, Antitumor, and Antiplasmodial Evaluation of New 7-Chloroquinoline–Benzimidazole Hybrids” (Molecules, 2024).
Where a name gives a salt, the structure may show the parent alone. Read-outs that look alike come from different tables or passages of the source.

Legend:
[1] = tested on: P. falciparum Dd2 (multiresistant), erythrocytic stage; assay: Antiplasmodial HRP2 assay, PfDd2; type: cell-based, Plasmodium falciparum; conditions: read-out: IC50 PfDd2
Method: (§1) Method used to evaluate the antiplasmodial activity of quinoline–benzimidazole hybrids against two P. falciparum strains, chloroquine-sensitive (Pf3D7) and chloroquine-resistant (PfDd2), was previously described. […] Chloroquine was used as a positive control.
(§2) In brief, 96-well plates were pre-coated with the tested compounds at 1:3 dilution before ring-stage parasites were added to the complete culture medium at a hematocrit of 1.5% and a parasitemia of 0.05%. […] All compounds were analyzed in duplicate in at least two independent experiments. The IC50 was determined by nonlinear regression analysis of the logarithmic concentration-response curves using the drc package v3.0-1 of R v4.1.0 [56].

[2] = tested on: P. falciparum 3D7 (CQ-susceptible), erythrocytic stage; assay: Antiplasmodial HRP2 assay, Pf3D7; type: cell-based, Plasmodium falciparum; conditions: read-out: IC50 Pf3D7
Method: as §1, §2

[3] = tested on: HL-60 (acute promyelocytic leukemia); assay: Antiproliferative MTT assay, HL-60; type: cell-based, human; conditions: mean ± SD of three experiments
Method: (§3) The effect of the new synthesized compounds was tested on five human tumor cell lines, HeLa (human cervical adenocarcinoma; from ATCC), CaCo-2 (human colorectal adenocarcinoma), HL-60 (acute promyelocytic leukemia), HuT78 (T-cell lymphoma), and THP-1 (acute monocytic leukemia), as well as one non-tumor cell line, MRC-5 (human fetal lung fibroblasts). The MRC-5 cells were used between 24 and 26 passages. The cells were cultured in two different types of media: DMEM (Gibco Thermo Fisher Scinetific Inc., Runcorn, UK) and RPMI 1640 (Gibco, Thermo Fisher Scinetific Inc., UK). Both media were supplemented with 2 mM glutamine, fetal bovine serum (10%; heat inactivated), and antibiotics (100 U penicillin and 0.1 mg streptomycin). RPMI 1640 was additionally supplemented with 10 mM HEPES and 1 mM sodium pyruvate. Cells growing in a monolayer were cultured in DMEM, while cells growing in suspension were cultured in RPMI 1640. Cells were grown in humidified atmosphere under the conditions of 37 °C/5% CO2 gas in a CO2 incubator (IGO 150 CELLlife^TM, JOUAN, Thermo Fisher Scientific, Waltham, MA, USA).
(§4) Growth-inhibitory activity was assessed using a slightly modified procedure based on the National Cancer Institute’s protocol. Briefly, cells were seeded in 96-well microtiter plates and incubated for 24 h. They were then treated with 10^−7 to 10^−4 M concentrations of the tested compounds for an additional 72 h. After the treatment period, the effects of the tested compounds on the growth rate of the cells were examined using the MTT assay. Absorbance was measured at 595 nm using a microplate reader. The IC50 value, which represents a 50% inhibition of cell growth, and QC calculation were performed using the GraphPadPrism software (La Jolla, USA), v. 5.03. and Excel software, Office 365. The selectivity index was calculated according to the following formula: SI=IC50 value of normal cell line/IC50 value of cancer cell line
(§5) The effect of each concentration was analyzed by plotting the logarithm of the concentration of the evaluated compound against the corresponding percentage inhibition value using least squares.

[4] = tested on: MRC-5 (human fetal lung fibroblasts); assay: Antiproliferative MTT assay, MRC-5; type: cell-based; conditions: 72 h, mean ± SD of three experiments
Method: as §3, §4, §5

[5] = tested on: CaCo-2 (human colorectal adenocarcinoma); assay: Antiproliferative MTT assay, CaCo-2; type: cell-based; conditions: mean ± SD of three experiments
Method: as §3, §4, §5

[6] = tested on: THP-1 (acute monocytic leukemia); assay: Antiproliferative MTT assay, THP-1; type: cell-based, human; conditions: mean ± SD of three experiments
Method: as §3, §4, §5

[7] = tested on: HuT78 (T-cell lymphoma); assay: Antiproliferative MTT assay, Hut78; type: cell-based, human; conditions: mean ± SD of three experiments
Method: as §3, §4, §5

[8] = tested on: HeLa (human cervical adenocarcinoma); assay: Antiproliferative MTT assay, HeLa; type: cell-based; conditions: 72 h, mean ± SD of three experiments
Method: as §3, §4, §5

[9] = Homo sapiens, MRC5, non-tumor cell line
[10] = Plasmodium falciparum, DD2, 72 h, chloroquine-resistant strain, three days incubation, HRP2-ELISA, mean ± SD, n ≥ 2
[11] = Plasmodium falciparum, 3D7, 72 h, chloroquine-sensitive strain, three days incubation, HRP2-ELISA, mean ± SD, n ≥ 2

Row | Compound | melting point | IC50 ([3]; Homo sapiens, HL-60, 72 h) [nM] | IC50 [4, 9] [µM] | IC50 ([5]; Homo sapiens, Caco-2, 72 h) [µM] | IC50 ([6]; Homo sapiens, THP-1, 72 h) [µM] | IC50 ([7]; Homo sapiens, HuT78, 72 h) [µM] | IC50 ([8]; Homo sapiens, HeLa) [nM] | IC50 [1, 10] [nM] | IC50 [2, 11] [nM] | also measured
1 | N=C(NC1CCCC1)c1ccc2nc(-c3ccc(OCCNc4ccnc5cc(Cl)ccc45)c(Br)c3)[nH]c2c1 (as salt: hydrochloride) [Compound 11d, 2-{3-bromo-4-[2-(7-chloroquinolin-4-ylamino)ethoxy]phenyl}-N-cyclopentyl-1H-benzo[d]imidazole-5(6)-carboximidamide trihydrochloride] | 234 °C (dec.) | – | – | – | – | – | – | – | – | –
2 | COc1cc(-c2nc3ccc(C(=N)NC4CCCC4)cc3[nH]2)ccc1OCCNc1ccnc2cc(Cl)ccc12 (as salt: hydrochloride) [Compound 12d, 2-{3-methoxy-4-[2-(7-chloroquinolin-4-ylamino)ethoxy]phenyl}-N-cyclopentyl-1H-benzo[d]imidazole-5(6)-carboximidamide trihydrochloride] | 226 °C (dec.) | – | – | – | – | – | – | – | – | –
3 | N=C(NC1CCCC1)c1ccc2nc(-c3ccc(OCCCNc4ccnc5cc(Cl)ccc45)cc3)[nH]c2c1 (as salt: hydrochloride) [Compound 13d] | > 275 °C | – | – | – | – | – | – | – | – | –
4 | N=C(NC1CCCC1)c1ccc2nc(-c3ccc(OCCCNc4ccnc5cc(Cl)ccc45)c(Br)c3)[nH]c2c1 (as salt: hydrochloride) [Compound 14d] | 265 °C (dec.) | – | – | – | – | – | – | – | – | –
5 | COc1cc(-c2nc3ccc(C(=N)NC4CCCC4)cc3[nH]2)ccc1OCCCNc1ccnc2cc(Cl)ccc12 (as salt: hydrochloride) [Compound 15d] | 260 °C (dec.) | – | – | – | – | – | – | – | – | –
6 | CCN(CC)CCCC(C)Nc1ccnc2cc(Cl)ccc12 (centres unmarked) [CQ, Chloroquine, reference compound] | – | – | – | – | – | – | – | – | – | IC50 ([1]; Plasmodium falciparum, DD2, 72 h): 360 ± 27.1 nM; IC50 ([2]; Plasmodium falciparum, 3D7, 72 h): 11.1 ± 0.5 nM
7 | Clc1ccc2c(NCCOc3ccc(-c4nc5ccccc5[nH]4)cc3)ccnc2c1 [Compound 10a] | 171 to 173 °C | 1300 ± 900 | 3.1 ± 0.3 | 6.1 ± 4.9 | 2.4 ± 0.2 | 2.8 ± 0.5 | 3400 ± 500 | 3.3 ± 0.1 | 2.7 ± 0.2 | –
8 | Clc1ccc2c(NCCOc3ccc(-c4nc5ccc(Cl)cc5[nH]4)cc3)ccnc2c1 [Compound 10b, 7-chloro-N-{2-[4-(5(6)-chloro-1H-benzo[d]imidazole-2-yl)phenoxy]ethyl}quinolin-4-amine] | 222 to 224 °C | 2000 ± 400 | 4 ± 1.1 | 1.9 ± 0.2 | 3.4 ± 0.8 | 1.6 ± 1.2 | 2700 ± 200 | 4.9 ± 0.8 | 3.5 ± 1.5 | –
9 | COc1ccc2nc(-c3ccc(OCCNc4ccnc5cc(Cl)ccc45)cc3)[nH]c2c1 [Compound 10c, 7-chloro-N-{2-[4-(5(6)-methoxy-1H-benzo[d]imidazole-2-yl)phenoxy]ethyl}quinolin-4-amine] | 248 °C (dec.) | 1800 ± 500 | 4.9 ± 1.7 | 1.7 ± 0.1 | 3.8 ± 0.4 | 2.3 ± 0.8 | 2600 ± 400 | 10.1 ± 5 | 6.8 ± 1.8 | –
10 | Clc1ccc2c(NCCOc3ccc(-c4nc5ccccc5[nH]4)cc3Br)ccnc2c1 [Compound 11a, N-{2-[4-(1H-benzo[d]imidazole-2-yl)-2-bromophenoxy]ethyl}-7-chloroquinolin-4-amine] | 226 to 228 °C | 300 ± 300 | 2.2 ± 0.8 | 2.1 ± 0.6 | 4.9 ± 7.3 | 2.4 ± 0.6 | 2600 ± 200 | 8.7 ± 3.4 | 36.9 ± 1.5 | –
11 | Clc1ccc2c(NCCOc3ccc(-c4nc5ccc(Cl)cc5[nH]4)cc3Br)ccnc2c1 [Compound 11b, N-{[2-bromo-4-(5(6)-chloro-1H-benzo[d]imidazole-2-yl)phenoxy]ethyl}-7-chloroquinolin-4-amine] | 238 to 240 °C | 1300 ± 900 | 3 ± 0.9 | 13.3 ± 2.5 | 4.4 ± 5.1 | 5.8 ± 1.9 | 5400 ± 4600 | 88.3 ± 3.1 | 87.3 ± 3.3 | –
12 | COc1ccc2nc(-c3ccc(OCCNc4ccnc5cc(Cl)ccc45)c(Br)c3)[nH]c2c1 [Compound 11c, N-{[2-bromo-4-(5(6)-methoxy-1H-benzo[d]imidazole-2-yl)phenoxy]ethyl}-7-chloroquinolin-4-amine] | 208 to 210 °C | 2200 ± 400 | 5.3 ± 2.4 | 1.5 ± 0.3 | 3.5 ± 7.3 | 3 ± 1.1 | 2500 ± 400 | 28 ± 0.6 | 19.7 ± 4.2 | –
13 | N=C(NC1CCCC1)c1ccc2nc(-c3ccc(OCCNc4ccnc5cc(Cl)ccc45)c(Br)c3)[nH]c2c1 [Compound 11d, 2-{3-bromo-4-[2-(7-chloroquinolin-4-ylamino)ethoxy]phenyl}-N-cyclopentyl-1H-benzo[d]imidazole-5(6)-carboximidamide trihydrochloride] | – | 44300 ± 1200 | > 100 | > 100 | 33.9 ± 3.6 | 17.3 ± 9.2 | > 100000 | 984 ± 521 | 321 ± 32.8 | –
14 | COc1cc(-c2nc3ccccc3[nH]2)ccc1OCCNc1ccnc2cc(Cl)ccc12 [Compound 12a, N-{[4-(1H-benzo[d]imidazole-2-yl)-2-methoxyphenoxy]ethyl}-7-chloroquinolin-4-amine] | 210 to 212 °C | 2000 ± 300 | 3.8 ± 0.4 | 2 ± 0.3 | 3 ± 0.6 | 4.2 ± 2.1 | 2200 ± 100 | 91.2 ± 9.5 | 14.5 ± 4 | –
15 | COc1cc(-c2nc3ccc(C(=N)NC4CCCC4)cc3[nH]2)ccc1OCCNc1ccnc2cc(Cl)ccc12 [Compound 12d, 2-{3-methoxy-4-[2-(7-chloroquinolin-4-ylamino)ethoxy]phenyl}-N-cyclopentyl-1H-benzo[d]imidazole-5(6)-carboximidamide trihydrochloride] | – | 52500 ± 5100 | > 100 | > 100 | 100 | 16.1 ± 4.7 | > 100000 | 120 ± 7.5 | 190 ± 11.5 | –
16 | N=C(NC1CCCC1)c1ccc2nc(-c3ccc(OCCCNc4ccnc5cc(Cl)ccc45)cc3)[nH]c2c1 [Compound 13d] | – | 18200 ± 6700 | 83 ± 5.4 | > 100 | 14.4 ± 3.1 | 15.2 ± 3 | > 100000 | 198.3 ± 0.1 | 57.4 ± 1.9 | –
17 | N=C(NC1CCCC1)c1ccc2nc(-c3ccc(OCCCNc4ccnc5cc(Cl)ccc45)c(Br)c3)[nH]c2c1 [Compound 14d] | – | 24400 ± 4400 | > 100 | > 100 | 100 | 19.7 ± 4 | > 100000 | 451 ± 40.3 | 159 ± 22.6 | –
18 | N-{2-[4-(1H-benzo[d]imidazole-2-yl)-2-bromophenoxy]propyl}-7-chloroquinolin-4-amine [Compound 14a] | – | – | – | – | – | – | – | – | – | IC50 ([3]; 72 h): 700 ± 500 nM; IC50 ([4]; non-tumor cell line): 0.6 ± 0.6 µM; IC50 ([5]; 72 h): 5 ± 7.3 µM; IC50 ([6]; 72 h): 5.1 ± 1.7 µM; IC50 ([7]; 72 h): 1.7 ± 0.4 µM; IC50 [8]: 1200 ± 700 nM; IC50 ([1]; chloroquine-resistant strain, three days incubation, HRP2-ELISA, mean ± SD, n ≥ 2): 13 ± 1.9 nM; IC50 ([2]; chloroquine-sensitive strain, three days incubation, HRP2-ELISA, mean ± SD, n ≥ 2): 9.3 ± 0.9 nM
